Assay results as given in patent publication US11634396B2 (priority 2021, dated 2023).
pIC50: −log10 of the molar value.

target: human mOR (Homo sapiens (Human), UniProt P35372); test: cell-based; conditions: not given
Experimental: CHO Tag-lite human mOR stable cell line from Cisbio (NCBI accession number: NM_000914.3, Bedford, Mass.) were seeded and grown to approximately 80% confluence in Ham F-12 with 10% FBS, 50 U/ml penicillin, 50 μg/ml streptomycin, 2 mM Hepes, and 1 mg/ml geneticin (Invitrogen, Carlsbad, Calif.). Cells were then harvested using accutase (Corning. Coming, N.Y.), centrifuged at 1300 RPM for 5 min, and plated at 5000 cells per 5 μL per well in a 5× dilution of stimulation buffer consisting of the HTRF cAMP Gi kit, water and IBMX at 0.5 mM (Cisbio, Bedford, Mass.) in white HTRF low volume 384 well plates (Cisbio, Bedford, Mass.). Plates were then incubated at 37° C. in 5% CO2 for 10 minutes. For the agonist assay, forskolin was added to a final concentration of 4 μM. […] Test compounds were dissolved in DMSO and water, and then serially diluted to working concentrations such that the concentration of DMSO was less than 0.1%. Diluted test compounds were added at 2.5 μL per well, and plates were incubated at 37° C., and 5% CO2 for 15 minutes, and then at room temperature for 15 minutes. Next 5 μl/well of cAMP Eu-cryptate and 5 μl/well of anti-cAMP-d2 (both diluted 1:20 in lysis buffer) were added, and plates were incubated at room temperature for 1 hour. Following incubation, plates were read in a Synergy Neo2 multi-mode reader (Biotek, Winooski, Vt.). […] For the agonist assay, data was normalized using the maximal DAMGO response. Measurements were performed in triplicate and the dose response was fit using nonlinear regression.

Sequence of human mOR (P35372 whole entry): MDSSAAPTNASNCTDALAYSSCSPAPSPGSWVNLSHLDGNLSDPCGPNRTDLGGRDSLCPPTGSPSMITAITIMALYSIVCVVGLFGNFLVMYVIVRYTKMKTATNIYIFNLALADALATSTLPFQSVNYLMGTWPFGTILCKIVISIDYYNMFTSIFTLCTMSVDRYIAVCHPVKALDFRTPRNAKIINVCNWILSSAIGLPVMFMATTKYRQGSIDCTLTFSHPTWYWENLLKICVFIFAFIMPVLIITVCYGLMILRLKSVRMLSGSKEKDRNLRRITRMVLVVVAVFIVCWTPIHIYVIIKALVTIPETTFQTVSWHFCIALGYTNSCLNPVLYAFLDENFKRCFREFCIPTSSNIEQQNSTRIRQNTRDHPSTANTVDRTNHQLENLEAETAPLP

Compound	pIC50
Cc1ccc([C@@H](CC(=O)NC[C@H](Cc2ccc(O)cc2C)N(C)C)C2(C(F)(F)F)CC2)o1 [Compound 266, (S)-N-((S)-2-(dimethylamino)-3-(4-hydroxy-2-methylphenyl)propyl)-3-(5-methylfuran-2-yl)-3-(1-(trifluoromethyl)cyclopropyl) propanamide]	> 6.52
CNC(=O)c1ccc(C[C@@H](CNC(=O)C[C@H](CC2CC2)c2ccccn2)N(C)C)c(C)c1 [Compound 139, 4-((S)-3-((S)-4-cyclopropyl-3-(pyridin-2-yl)butanamido)-2-(dimethylamino)propyl)-N,3-dimethylbenzamide]	< 5.52
CNC(=O)c1ccc(C[C@@H](CNC(=O)C[C@H](c2cccnc2)C2(C(F)(F)F)CC2)N(C)C)c(C)c1 [Compound 131, 4-((S)-2-(dimethylamino)-3-((R)-3-(pyridin-3-yl)-3-(1-(trifluoromethyl)cyclopropyl)propanamido)propyl)-N,3-dimethylbenzamide]	> 6.52
CNC(=O)c1ccc(C[C@@H](CNC(=O)C[C@H](c2ccc(Cl)cc2)C2(C(F)(F)F)CC2)N(C)C)cc1F [Compound 107, 4-((S)-3-((R)-3-(4-chlorophenyl)-3-(1-(trifluoromethyl)cyclopropyl)propanamido)-2-(dimethylamino)propyl)-2-fluoro-N-methylbenzamide]	> 6.52
CN(C)[C@H](CNC(=O)CC(c1cccnc1)C1(C(F)(F)F)CC1)Cc1cc(F)c(C(N)=O)c(F)c1 (stereo partly drawn) [Compound 50, 4-[(2S)-2-(dimethylamino)-3-[3-(pyridin-3-yl)-3-[1-(trifluoromethyl)cyclopropyl]propanamido]propyl]-2,6-difluorobenzamide]	< 5.52
CCN(CC)[C@H](CNC(=O)C[C@@H](c1ccccc1)C(C)(C)C)Cc1ccc(C(=O)NC)c(F)c1 [Compound 166, 4-((S)-2-(diethylamino)-3-((R)-4,4-dimethyl-3-phenylpentanamido)propyl)-2-fluoro-N-methylbenzamide]	> 6.52
CN(C)[C@H](CNC(=O)CC(c1ccncc1)C1(C(F)(F)F)CC1)Cc1ccc(O)cc1 (stereo partly drawn) [Compound 309, N-((S)-2-(dimethylamino)-3-(4-hydroxyphenyl)propyl)-3-(pyridin-4-yl)-3-(1-(trifluoromethyl)cyclopropyl)propanamide]	> 6.52
CN(C)[C@H](CNC(=O)C[C@H](c1ccoc1)C1(C(F)(F)F)CC1)Cc1ccc(C(N)=O)c(F)c1 [Compound 51, 4-((S)-2-(dimethylamino)-3-((R)-3-(furan-3-yl)-3-(1-(trifluoromethyl)cyclopropyl)propanamido)propyl)-2-fluorobenzamide]	> 6.52
Cc1cc(O)ccc1C[C@@H](CNC(=O)CC(c1ncc(Cl)cn1)C1(C(F)(F)F)CC1)N(C)C (stereo partly drawn) [Compound 274, 3-(5-chloropyridmidin-2-yl)-N-((S)-2-(dimethylamino)-3-(4-hydroxy-2-methylphenyl)propyl)-3-(1-(trifluoromethyl)cyclopropyl) propanamide]	> 6.52
CN(C)[C@H](CNC(=O)C[C@H](c1cccnc1)C1(C(F)(F)F)CC1)Cc1cc(F)c2[nH]ncc2c1 [Compound 230, (R)-N-((S)-2-(dimethylamino)-3-(7-fluoro-1H-indazol-5-yl)propyl)-3-(pyridin-3-yl)-3-(1-(trifluoromethyl)cyclopropyl)propanamide]	> 6.52
CNC(=O)c1ccc(C[C@@H](CNC(=O)CC(c2ccc(F)cn2)C2(C(F)(F)F)CC2)N(C)C)c(Cl)c1 (stereo partly drawn) [Compound 121, 3-chloro-4-((2S)-2-(dimethylamino)-3-(3-(5-fluoropyridin-2-yl)-3-(1-(trifluoromethyl)cyclopropyl)propanamido)propyl)-N-methylbenzamide]	> 6.52
CNC(=O)c1ccc(C[C@@H](CNC(=O)C[C@@H](CC2CC2)c2cccnc2)N(C)C)c(C)c1 [Compound 133, 4-((S)-3-((R)-4-cyclopropyl-3-(pyridin-3-yl)butanamido)-2-(dimethylamino)propyl)-N,3-dimethylbenzamide]	< 5.52
Cc1ncc([C@@H](CC(=O)NC[C@H](Cc2ccc(O)cc2)N(C)C)C2(C(F)(F)F)CC2)cn1 [Compound 312, (R)-N-((S)-2-(dimethylamino)-3-(4-hydroxyphenyl)propyl)-3-(2-methylpyrimidin-5-yl)-3-(1-(trifluoromethyl)cyclopropyl)propanamide]	> 6.52
Cc1ncc([C@@H](CC(=O)NC[C@H](Cc2ccc(C(N)=O)cc2)N(C)C)C2(C(F)(F)F)CC2)cn1 [Compound 79, 4-((S)-2-(dimethylamino)-3-((R)-3-(2-methylpyrimidin-5-yl)-3-(1-(trifluoromethyl)cyclopropyl)propanamido)propyl)benzamide]	> 6.52
Cc1ncc([C@H](CC(=O)NC[C@H](Cc2ccc(C(N)=O)c(F)c2)N(C)C)C2(C(F)(F)F)CC2)s1 [Compound 58, 4-((S)-2-(dimethylamino)-3-((R)-3-(2-methylthiazol-5-yl)-3-(1-(trifluoromethyl)cyclopropyl)propanamido)propyl)-2-fluorobenzamide]	< 5.52
CN(C)[C@H](CNC(=O)C[C@@H](CC1CC1)c1cncnc1)Cc1ccc(O)c(Cl)c1 [Compound 282, (R)-N-((S)-3-(3-chloro-4-hydroxyphenyl)-2-(dimethylamino)propyl)-4-cyclopropyl-3-(pyrimidin-5-yl)butanamide]	> 6.52
Cc1ncc([C@@H](CC(=O)NC[C@H](Cc2ccc3[nH]c(=O)oc3c2C)N(C)C)C2(C(F)(F)F)CC2)cn1 [Compound 169, (R)-N-((S)-2-(dimethylamino)-3-(7-methyl-2-oxo-2,3-dihydrobenzo[d]oxazol-6-yl)propyl)-3-(2-methylpyrimidin-5-yl)-3-(1-(trifluoromethyl)cyclopropyl)propanamide]	< 5.52
CN(C)[C@H](CNC(=O)C[C@H](CC1CC1)c1ccncc1)Cc1ccc(O)cc1Cl [Compound 260, (S)-N-((S)-3-(2-chloro-4-hydroxyphenyl)-2-(dimethylamino)propyl)-4-cyclopropyl-3-(pyridin-4-yl)butanamide]	> 6.52

same assay, conditions: CHO Tag-lite human mOR stable cell line; forskolin 4 μM and DAMGO at EC90; read-out: mOR cAMP Antagonist Assay IC50

Compound	pIC50
CN(C)[C@H](CNC(=O)C[C@@H](c1cncc(F)c1)C(C)(C)C)Cc1ccc(C(N)=O)c(F)c1 [Compound 63, 4-((S)-2-(dimethylamino)-3-((R)-3-(5-fluoropyridin-3-yl)-4,4-dimethylpentanamido)propyl)-2-fluorobenzamide]	> 6.52
CN(C)[C@H](CNC(=O)C[C@H](c1ccncc1)C1(C(F)(F)F)CC1)Cc1cc2cn[nH]c2cc1Cl [Compound 234, (R)-N-((S)-3-(6-chloro-H-indazol-5-yl)-2-(dimethylamino)propyl)-3-(pyridin-4-yl)-3-(1-(trifluoromethyl)cyclopropyl)propanamide]	> 6.52
CN(C)[C@H](CNC(=O)C[C@H](c1cccnc1)C1CC1)Cc1ccc2[nH]ncc2c1 [Compound 207, (S)-3-cyclopropyl-N-((S)-2-(dimethylamino)-3-(1H-indazol-5-yl)propyl)-3-(pyridin-3-yl)propanamide]	< 5.52

same assay, conditions: read-out: mOR cAMP Antagonist Assay IC50

pIC50	Compound
< 5.52	CN(C)[C@H](CNC(=O)C[C@H](c1ccncc1)C1(C(F)(F)F)CC1)Cc1ccc2[nH]c(=O)ccc2c1 [Compound 103, (R)-N-((S)-2-(dimethylamino)-3-(2-oxo-1,2-dihydroquinolin-6-yl)propyl)-3-(pyridin-4-yl)-3-(1-(trifluoromethyl)cyclopropyl) propanamide]
